Consider two molecules from patent US12616203B2, “Use of 3-isoxazolidinones compounds as selective herbicides” (FMC Corporation, priority 2014, dated 2026).

One assay concerns Common ragweed. Kind of assay: Ex16 PRE 2,4-DC + pyroxasulfone, % control 28 DAT, Colby. The class given is in vivo, Ambrosia artemisiifolia. The text has this:
(§1) To determine PRE efficacy, five levels of 2,4 DC (36.7% CS) 0, 125, 170, 210, or 250 g ai/ha and five levels of pyroxasulfone (KIH485-85WG) 0, 50, 65, 80, or 95 g ai/ha were applied either alone or as tank-mix. Additional treatments consisted of premix of pyroxasulfone plus fluthiacet-methyl (Anthem™ 23.3%) at 169.9 g ai/ha, S-metolachlor (Dual II Magnum, 82.4%) at 1388 g, and tank-mix of mesotrione (Callisto, 40%) at 123 g plus S-metolachlor at 1252 g. […] Treatments were applied before the emergence of black nightshade, giant foxtail, green foxtail, yellow foxtail, large crabgrass, kochia, redroot pigweed, common ragweed, and barnyardgrass.
(§2) Flats were watered and fertilized routinely after treatment application. Each treatment was replicated three times.

In the next assay the test system is Morningglory sp. Kind of assay: Ex38 PRE 2,4-DC + pyroxasulfone, % control 28 DAT, Colby. The assay is classed as in vivo, Ipomea spp. The settings on record: PRE. The text has this: Pyroxasulfone plus fluthiacet-methyl (ANTHEM™, 23.3%) applied at 165 g ai/ha was included as a standard for comparison. […] Thereafter flats were watered and fertilized routinely.

The subject of assay [1] is weeds. Kind of assay: Ex13 PRE greenhouse. The class given is in vivo. The settings on record: 28 DAT, weed and rate in the words. The text has this: Pyroxasulfone (KIH-485, 85%) at 74.3 g ai/ha, pendimethalin (Prowl 3.3EC, 37.4%) at 1200 g ai/ha, or a premix of chlorsulfuron plus metsulfuron-methyl (Report Extra, 75%) at 15.8 g ai/ha were applied as commercial standards. […] Treatments were replicated 3 times and flats were watered after planting before the treatment and lightly watered after treatment application. Thereafter flats were watered and fertilized routinely.

The test system of assay [2] is weeds. Kind of assay: Ex16 PRE greenhouse. The following applies: weed and rate in the words. The assay is classed as in vivo.
From the text: as §1, §2

Assay [3] concerns weeds; Wheat, barley, and oil seed rape (OSR). As to the kind of experiment: Ex19 PRE greenhouse. The assay is classed as in vivo. The settings on record: rate in the words. The source says:
In this study, the crops tested included Wheat, barley, and oil seed rape (OSR).
To determine weed efficacy and wheat, barley or OSR selectivity, 2,4 DC (CS 36.7%) and Diflufenican (CS 19.5%) were applied preemergence either alone or as tank-mix partners at the following rates. 2,4 DC was applied at 125, 170, 210 and 250 g ai/ha while Diflufenican was applied at 50, 75, and 100 g ai/ha. Pyroxasulfone (KIH-485, 85%) at 74.3 g ai/ha, pendimethalin (Prowl 3.3EC, 37.4%) at 1200 g ai/ha, or a premix of chlorsulfuron plus metsulfuron-methyl (Report Extra, 75%) at 15.8 g ai/ha were applied as commercial standards.
Herbicides included as standards for comparison were pyroxasulfone, pendimethalin, and a pre mix of chlorsulfuron plus metsulfuron methyl, all applied at labeled rates as indicated above. Treatments were replicated 3 times. […] Thereafter flats were watered and fertilized routinely.

In assay [4] the test system is weeds. As to the kind of experiment: Ex24 PRE greenhouse. The assay is classed as in vivo. The following applies: weed and rate in the words.
From the text: The tested weeds include Giant foxtail (Setaria faberi, SETFA), green foxtail (Setaria virdis, SETVI), yellow foxtail (Setaria pumila, SETLU), black nightshade (Solanum nigrum, SOLNI), kochia (Kochia scoparia, KCHSC), redroot pigweed (Amaranthus retroflexus, AMARE), common ragweed (Ambrosia artemisiifolia, AMBEL), barnyardgrass (Echinochloa crus-galli, ECHCG), large crabgrass (Digitaria sanguinalis, DIGSA).
as §1, with “DC-21” for “DC”, “Magnum®,” for “Magnum,”, “(Callisto®,” for “(Callisto,”, “bamyardgrass. […] Flats were watered and fertilized routinely after treatment application. Each treatment was replicated three times.” for “barnyardgrass.”

Another assay has as its system Wild buckwheat. As to the kind of experiment: Ex12 PRE 2,4-DC + dimethenamid-P, % control 28 DAT, Colby. The class given is in vivo, Polygonum convolvulus. The method, then:
(§3) The tested weeds include: wild buckwheat (Polygonum convolvulus, POLCO), velvetleaf (Abutilon theophrasti, ABUTH), cheat (Bromus secalinus, BROSE), wild oat (Avena fatua, AVEFA), radish (Raphanus sativus, RAPSN), corn poppy (Papaver rhoeas, PAPRH), yellow foxtail (Setaria pumila, SETLU), Italian ryegrass (Lolium perenne ssp. multiflorum, LOLMU). The tested crop was Oilseed rape.
(§4) This greenhouse study was conducted to assess the preemergence (PRE) weed control and oilseed rape tolerance with 2,4 DC (CS 36.7%) and dimethenamid-P (Outlook®, 63.9%) tank-mix combinations.
(§5) Metazachlor (Butisan, 43.1%) plus dimethenamid-P applied as tank mix at 500 g each was applied as commercial standard. Treatments were replicated 3 times and flats were watered after planting but before the treatment and then lightly watered after treatment application. Thereafter flats were watered and fertilized routinely.

A further assay has as its system Wild oat. The assay is described as above. The class given is in vivo, Avena fatua. The protocol:
as §3, §4, §5

The subject of assay [5] is weeds. Kind of assay: Ex20 PRE greenhouse. The class given is in vivo. The settings on record: weed and rate in the words. The text has this: Herbicides: • 2,4 DC-21 (36.7% CS): 125, 170, 210, or 250 g ai/ha alone and as tank-mix with dimethenamid-P • Dimethanamid-P (Outlook, 63.9%): 250, 375, 500 g ai/ha in combination with 2,4 DC and alone, additional treatment alone at 750 g ai/ha. • Metazachlor (Butisan 43.1%): 500 g ai/ha
Herbicides included as standards for comparison were metazachlor plus dimethenamid-P (500 g) as tank mix combination. […] Treatments were replicated 3 times. […] Thereafter flats were watered and fertilized routinely.

Where [6] appears, read: dimethenamid-P alone 250 g ai/ha.
The mark [7] stands for this setting: dimethenamid-P alone 375 g ai/ha.
Where [8] appears, read: dimethenamid-P alone 500 g ai/ha.

Regarding `Cn1nc(C(F)(F)F)c(CS(=O)(=O)C2=NOC(C)(C)C2)c1OC(F)F` [Pyroxasulfone, pyroxasulfone, reference compound], the Y in the assay with Common ragweed (pyroxasulfone alone 50 g ai/ha) is 40%; with Common ragweed (pyroxasulfone alone 65 g ai/ha), 53%; with Common ragweed (pyroxasulfone alone 80 g ai/ha), 40%; in the assay on Common ragweed (pyroxasulfone alone 95 g ai/ha) it was 70%. The entries for the “Y (% control, pyroxasulfone alone)” value with Morningglory sp. (pyroxasulfone 30 g ai/ha), in the assay with Morningglory sp. (pyroxasulfone 60 g ai/ha) and in the assay with Morningglory sp. (pyroxasulfone 90 g ai/ha) were 9%, 60% and 65%, respectively. The “weed control in words” value is “at 74.3 g controlled all weeds except tall morningglory and shepherd's-purse” in the assay with weeds [1]; “controlled all species except common ragweed which was not controlled at any rate” in the assay with weeds [2]; “controlled all species except common ragweed which was not controlled at any rate” with weeds [4]. Moreover, in assay [3], the “weed control / crop safety in words” value is “controlled all weeds except field violet and was safe on wheat only”.

As for `COC[C@H](C)N(C(=O)CCl)c1c(C)csc1C` [Dimethenamid-P, dimethenamid-P, reference compound], the Y in the assay on Wild buckwheat (setting [6]) is reported as 32%; in the assay with Wild buckwheat (setting [7]), 70%; in the assay with Wild buckwheat (setting [8]), 63%; in the assay with Wild oat (setting [6]), 66%; in the assay with Wild oat (setting [7]) it was 73%; in the assay on Wild oat (setting [8]), 90%. In the assay with weeds [5], the “weed control in words” value was “alone controlled redroot pigweed, giant foxtail, and goosegrass at all rates; common chickweed at ≥375 g; shepherd's-purse at ≥500 g; and Canada thistle at 750 g”.
